We go through 1 compound from doi:10.1101/2024.09.05.611129v1 (biorxiv, 2024).

SMILES strings stand for the structures.

The assay concerns the target MtKatG (Mycobacterium tuberculosis, UniProt P9WIE5).

Chain of MtKatG (P9WIE5 whole entry): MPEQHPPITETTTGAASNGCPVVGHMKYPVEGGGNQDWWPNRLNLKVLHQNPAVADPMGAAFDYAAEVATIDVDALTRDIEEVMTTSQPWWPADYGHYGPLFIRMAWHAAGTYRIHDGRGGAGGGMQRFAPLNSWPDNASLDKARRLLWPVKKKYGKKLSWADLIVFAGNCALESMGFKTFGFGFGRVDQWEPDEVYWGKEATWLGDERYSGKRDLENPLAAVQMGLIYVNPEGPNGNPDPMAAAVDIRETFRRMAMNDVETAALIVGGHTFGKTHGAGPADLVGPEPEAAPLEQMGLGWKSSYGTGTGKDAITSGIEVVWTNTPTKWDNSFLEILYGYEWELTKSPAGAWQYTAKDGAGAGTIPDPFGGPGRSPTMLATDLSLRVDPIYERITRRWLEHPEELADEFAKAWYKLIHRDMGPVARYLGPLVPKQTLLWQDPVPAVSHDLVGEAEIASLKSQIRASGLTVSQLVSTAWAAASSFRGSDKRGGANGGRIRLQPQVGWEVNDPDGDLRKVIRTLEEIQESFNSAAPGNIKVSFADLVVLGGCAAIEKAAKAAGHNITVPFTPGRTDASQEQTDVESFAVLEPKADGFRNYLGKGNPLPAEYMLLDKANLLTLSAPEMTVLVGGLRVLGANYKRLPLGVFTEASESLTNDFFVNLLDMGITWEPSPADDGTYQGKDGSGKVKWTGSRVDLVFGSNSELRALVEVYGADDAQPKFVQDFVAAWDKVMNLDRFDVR

Broadly, the Km is the substrate concentration at which the rate is half of its maximum. For `CC(C)(C)OO` [t-BuOOH], the Km came to 19 ± 6 mM.
